How the values were obtained:
[1] = system: 5-HT receptor 2B (HTR2B), mRNA; experiment: Microarray gene expression in CD3+ lymphocytes, HTR2B probe ILMN_1735764; format: cell-based, human; conditions: 4 h, Illumina HT12-v3 array
Description: (§1) CD3+ lymphocytes were isolated from the blood of haematologically normal volunteers. Cells placed into 25 cm3 flasks at a concentration of 1×10^6/ml, and left to equilibrate in an incubator with a humidified atmosphere and 5% CO2 in air at 37° C. […] RNA extraction was performed using Trizol according to standard procedures, before being processed for microarray analysis according to the standard methodologies. Briefly, equal amounts of biotinylated cRNA was hybridised to the Illumina human HT12-v3 arrays for 18 h and subsequently processed according to manufacturer's instructions before scanning on an Illumina BeadArray Reader. The image data were processed using default values in GenomeStudio v2009.1 with imputation of missing data, before loading onto GeneSpring v9.0 for data normalisation and filtering. Data analyses were performed using Excel software, and the ratio of gene expression signals in treated vs. untreated calculated.

[2] = system: mRNA for one or more of 5-HT2A, 5-HT2B or 5-HT2C receptor proteins; experiment: Microarray gene expression in CD3+ lymphocytes, summary statement over 5-HT2 receptors; format: cell-based, human; conditions: both higher dose (10 uM) and low dose (10 nM) naltrexone, 4 h
Description: as §1

With `O=C1CC[C@@]2(O)[C@H]3Cc4ccc(O)c5c4[C@@]2(CCN3CC2CC2)[C@H]1O5` [NTX, morphinan-6-one, 17-(cyclopropylmethyl)-4,5-epoxy-3,14-dihydroxy-(5α)] the “gene expression signal, LDN” value ([1]; low dose naltrexone 10 nM) was 147.45, the “gene expression signal, NTX” value ([1]; naltrexone 10 uM) was 177.95 and the “levels of mRNA for one or more of 5-HT2A, 5-HT2B or 5-HT2C receptor proteins” value [2] was “selectively increase the levels of mRNA”.

Reference: US20240293395A1, “NALTREXONE FOR IMPROVING THE […] OF 5-HT RECEPTOR SUBTYPE 2A, 2B or 2C AGONISTS” (LDN Pharma Limited, priority 2021, published 2024)
